# “And” between values parts separate entries of the source, which are not always exact repeats. Equal values may be shown once.
# Experiment: Solubility study of API in liquid, semi-solid and binary excipients (visual, solvent aliquots, Parts 1 and 2)
# Settings: for Aliquot where API first fully dissolved, Part 2 Study: aliquots 1/2/3/4 = 0.8/0.4/0.25/0.1 % w/v
# Procedure: The aim of this study was to assess the solubility of the N-(2-(tert-butyl)-1-((4,4-difluorocyclohexyl)methyl)-1H-benzimidazol-5-yl)ethanesulfonamide in a number of different excipients.
# The binary semi-solid composition mixtures were manufactured as follows: • I. The semi solids were dispensed then molten overnight at ˜60° C. […] (PEG 6000) • II. PEG 400 was added the next day, as required, (when all the semi-solids were molten) • III. Binary solvent mixture containing PEG 6000 were mixed at ˜80° C. and the remaining binaries were mixed at ˜70° C., until homogenous
# Where required, the semi solids were melted prior to use (overnight). The solubility of the API in the selected solvents was assessed in two parts (Part 1 and Part 2 Studies) as follows: • i. Solvent aliquots were added to pre-dispensed API while mixing using a magnetic flea and stirrer. • ii. The temperature of the solvents was maintained as follows: • a. Single-component liquids: Room temperature (ambient) • b. TPGS and PEG 1500: ˜60° C. • c. PEG 6000 and binary solvent mixtures containing PEG 6000: ˜80° C. • iii. Solvents were mixed for a maximum of 1 hour between each aliquot addition. • iv. The solvents were carefully inspected visually between aliquots. • v. The addition of solvent was stopped when: • a. After Aliquot 2 addition if API fully dissolve—(even if API dissolve after Aliquot 1, Aliquot 2 was added) • b. After adding all the solvent aliquots in Table 28 • vi.
structure (smiles),measurement,setting,value
"CCS(=O)(=O)Nc1ccc2c(c1)nc(C(C)(C)C)n2CC1CCC(F)(F)CC1 [Compound I, N-(2-(tert-butyl)-1-((4,4-difluorocyclohexyl)methyl)-1H-benzimidazol-5-yl)ethanesulfonamide]","Aliquot where API first fully dissolved, Part 2 Study",in PEG1500:TPGS (1:9),2nd
same,"Aliquot where API first fully dissolved, Part 1 Study","in PEG1500:TPGS (1:9), aliquots 1/2/3 = 0.05/0.025/0.0125 % w/v",3rd
same,Solubility range (% w/v) Above/Below,"in PEG1500:TPGS (1:9), listed as API",> 0.40% w/v and < 0.80% w/v
same,"Aliquot where API first fully dissolved, Part 2 Study",in PEG1500:TPGS (9:1),1st
same,"Aliquot where API first fully dissolved, Part 1 Study","in PEG1500:TPGS (9:1), aliquots 1/2/3 = 0.05/0.025/0.0125 % w/v",1st
same,Solubility range (% w/v) Above/Below,"in PEG1500:TPGS (9:1), upper limit not known",> 0.80% w/v
same,"Aliquot where API first fully dissolved, Part 2 Study","in Polysorbate 20, ambient, only after Overnight Hold",4th Only
same,"Aliquot where API first fully dissolved, Part 1 Study","in Polysorbate 20, ambient, only after stirring overnight, aliquots 1/2/3 = 0.05/0.025/0.0125 % w/v",3rd^#
same,Solubility range (% w/v) Above/Below,"in Polysorbate 20, ambient, upper limit not known",> 0.10% w/v
same,"Aliquot where API first fully dissolved, Part 2 Study","in Polysorbate 80, ambient, only after Overnight Hold",4th Only
same,"Aliquot where API first fully dissolved, Part 1 Study","in Polysorbate 80, ambient, only after stirring overnight, aliquots 1/2/3 = 0.05/0.025/0.0125 % w/v",3rd^#
same,Solubility range (% w/v) Above/Below,"in Polysorbate 80, ambient, upper limit not known",> 0.10% w/v
same,"Aliquot where API first fully dissolved, Part 2 Study","in Propylene glycol dilaurate, ambient, only after Overnight Hold",4th Only
same,"Aliquot where API first fully dissolved, Part 1 Study","in Propylene glycol dilaurate, ambient, only after stirring overnight, aliquots 1/2/3 = 0.05/0.025/0.0125 % w/v",3rd^#
same,Solubility range (% w/v) Above/Below,"in Propylene glycol dilaurate, ambient, upper limit not known",> 0.10% w/v
same,"Aliquot where API first fully dissolved, Part 2 Study","in Propylene glycol monocaprylate, ambient",2nd
same,"Aliquot where API first fully dissolved, Part 1 Study","in Propylene glycol monocaprylate, ambient, aliquots 1/2/3 = 0.05/0.025/0.0125 % w/v",2nd
same,Solubility range (% w/v) Above/Below,"in Propylene glycol monocaprylate, ambient, listed as API",> 0.40% w/v and < 0.80% w/v
same,"Aliquot where API first fully dissolved, Part 1 Study","in Soybean oil, ambient, DND = did not dissolve even after 3 aliquots (0.0125 % w/v)",DND*
same,"Aliquot where API first fully dissolved, Part 2 Study",in molten Capmul 808G,3rd
same,"Aliquot where API first fully dissolved, Part 1 Study","in molten Capmul 808G, aliquots 1/2/3 = 0.05/0.025/0.0125 % w/v",1st
same,Solubility range (% w/v) Above/Below,"in molten Capmul 808G, listed as API",> 0.25% w/v and < 0.40% w/v
same,Solubility range (% w/v) Above/Below,"in molten Cremophor RH40, listed as API",> 0.40% w/v and < 0.80% w/v
same,"Aliquot where API first fully dissolved, Part 1 Study","in molten Cremophor RH40, only after Overnight Hold, aliquots 1/2/3 = 0.05/0.025/0.0125 % w/v",2nd Only
same,"Aliquot where API first fully dissolved, Part 2 Study","in molten Cremophor RH40, only after stirring overnight",2nd^#
same,"Aliquot where API first fully dissolved, Part 2 Study",in molten Gelucire 48/16,4th
same,"Aliquot where API first fully dissolved, Part 1 Study","in molten Gelucire 48/16, aliquots 1/2/3 = 0.05/0.025/0.0125 % w/v",1st
same,"Aliquot where API first fully dissolved, Part 2 Study",in molten Gelucire 50/13,3rd
same,"Aliquot where API first fully dissolved, Part 1 Study","in molten Gelucire 50/13, aliquots 1/2/3 = 0.05/0.025/0.0125 % w/v",2nd
same,Solubility range (% w/v) Above/Below,"in molten Gelucire 50/13, listed as API",> 0.25% w/v and < 0.40% w/v
same,"Aliquot where API first fully dissolved, Part 2 Study",in molten Glyceryl monooleate,2nd
same,"Aliquot where API first fully dissolved, Part 1 Study","in molten Glyceryl monooleate, aliquots 1/2/3 = 0.05/0.025/0.0125 % w/v",2nd
same,Solubility range (% w/v) Above/Below,"in molten Glyceryl monooleate, listed as API",> 0.40% w/v and < 0.80% w/v
same,"Aliquot where API first fully dissolved, Part 1 Study","in molten Glyceryl palmitostearate, DND = Did not dissolve (3 aliquots, 0.0125 % w/v)",DND*
same,"Aliquot where API first fully dissolved, Part 2 Study",in molten Kolliphor HS15,2nd
same,"Aliquot where API first fully dissolved, Part 1 Study","in molten Kolliphor HS15, aliquots 1/2/3 = 0.05/0.025/0.0125 % w/v",1st
same,Solubility range (% w/v) Above/Below,"in molten Kolliphor HS15, listed as API",> 0.40% w/v and < 0.80% w/v
same,"Aliquot where API first fully dissolved, Part 2 Study",in molten PEG 4000,2nd
same,"Aliquot where API first fully dissolved, Part 1 Study","in molten PEG 4000, aliquots 1/2/3 = 0.05/0.025/0.0125 % w/v",1st
same,Solubility range (% w/v) Above/Below,"in molten PEG 4000, listed as API",> 0.40% w/v and < 0.80% w/v
same,"Aliquot where API first fully dissolved, Part 2 Study","in molten PEG 6000, ~80° C.",1st
same,"Aliquot where API first fully dissolved, Part 1 Study","in molten PEG 6000, ~80° C., aliquots 1/2/3 = 0.05/0.025/0.0125 % w/v",2nd
same,Solubility range (% w/v) Above/Below,"in molten PEG 6000, ~80° C., upper limit not known",> 0.80% w/v
same,"Aliquot where API first fully dissolved, Part 1 Study","in molten Sorbitan palmitate, DND = Did not dissolve (3 aliquots, 0.0125 % w/v)",DND*
